Source: PubChem BioAssay AID2060900 (Molecular Pharmacology Branch, DTP, NCI, 2025)

Test system: 521955-158-R2-J5-PDC complex spheroids, viability
Experiment: Anticancer human tumor 521955-158-R2-J5-PDC patient-derived pancreatic carcinoma cell line growth inhibition [RAS]
Settings: for IC50: curve of first compound; for viability, T/C: stronger effect = lower value; active = viability on the fitted dose curve at most 10% of control; inactive = the rest
Description: RAS pathway inhibitors in Combinations in Complex Spheroids
A high-throughput screen of multi-cell type tumor spheroids was designed to identify active combinations of RAS pathway inhibitors and targeted small molecules. Complex spheroids include a stromal component modeled by human endothelial cells (HUVEC) and fibroblasts modeled by human mesenchymal stem cells (MSCs). The concentration ranges selected for each drug and investigational agent were based upon clinically achievable concentrations if the clinical Cmax of the agent was known.
Compounds. The drugs and investigational agents: abemaciclib (NSC768073), cobimetinib (NSC768068), divarasib (GDC6063, NSC841802), docetaxel (NSC628503), GDC-1971 (RLY-1971, NSC841576), gemcitabine (NSC613327), inavolisib (NSC800729), ipatasertib (NSC767898), KB-0742 (NSC834161), MRTX-1133 (NSC836407), osimertinib (NSC779217), RMC-4630 (NSC839698), RMC-6236 (NSC851965), RMC-6291 (NSC852671), Ro-3306 (NSC812927), sapanisertib (NSC764658), SN-38 (NSC673596), staurosporine (NSC755774), SY5609 (NSC837396), and tovorafenib (DAY101, NSC766906), were obtained from the National Cancer Institute (NCI) Developmental Therapeutics Program Chemical Repository. The FDA-approved anticancer drug set is available from the NCI Developmental Therapeutics Program. […] The stock solutions were prepared in dimethyl sulfoxide (DMSO, Sigma-Aldrich, St. Louis, MO, cat. D2650) at 800-fold the tested concentration and stored at -70 degrees C prior to their use. All drugs and investigational agents were tested over a range starting from a high concentration at or near the clinical Cmax and decreasing in half-log increments. If the clinical Cmax for an agent had not been determined, the highest concentration tested was 10 microM.
Cell Culture. All cells were maintained in an incubator at 37 degrees C and 5% CO2 with 95% humidity. The PDC lines were cultured according to standard operating procedures established by the NCI PDMR. All PDCs were thawed and cultured in Matrigel-coated flasks prepared with a working solution of 1X Ham's F-12 nutrient mix, without supplementation (Invitrogen, Waltham, MA, cat. 11765054), 100 U/mL penicillin-streptomycin (Invitrogen, cat. 15140122), and 2.5% Matrigel (Corning Inc., Corning, NY, cat. 354248) for the first three passages. The 362531-283-R-J2-PDC and 782815-120-R-J1-PDC lines were cultured in 6C/Colon 1B media, which includes advanced DMEM/F-12 (Thermo Fisher Scientific, cat. 12634028), 10 mM HEPES (Thermo Fisher Scientific, cat. 15630080), 1X GlutaMAX supplement (Thermo Fisher Scientific, cat. 35050061), 0.1 mg/mL primocin (InvivoGen, San Diego, CA, cat. ant-pm-2), 10% defined fetal bovine serum, heat inactivated (HyClone Laboratories Inc., Logan, UT, cat. SH30070.03HI), 50% L-WRN conditioned media (ATCC, cat. CRL-3276), 1.25 mM N-Acetyl-L-cysteine (Sigma-Aldrich, cat. A9165), 10 mM nicotinamide (Sigma-Aldrich, cat. N0636), 1X B-27 supplement (Thermo Fisher Scientific, cat. 17504044), 1X N-2 supplement (Thermo Fisher Scientific, cat. 17502048), 50 ng/mL human EGF (Thermo Fisher Scientific, cat. PHG0311), and 10 microM Y-27632 dihydrochloride (Tocris Bioscience, cat. 1254). The K12877-001-R-J1-PDC line was cultured in 6I media, which includes all 6C/Colon 1B media plus 10 ng/mL human FGF-10 (PeproTech, cat. 100-26), 1 ng/mL human FGF-2 (PeproTech, cat. 100-18B), 1 µM prostaglandin E2 (Tocris Bioscience, cat. 2296), […] hydrocortisone (Sigma-Aldrich, cat. H4001), and […] bovine insulin (Sigma-Aldrich, cat. I6634). The K86415-001-R-J1-PDC line was cultured in 6D media, which includes all 6C/Colon 1B media components minus the L-WRN conditioned media. The 485176-168-R4-J1-PDC was cultured in PANC media, which includes all 6C/Colon 1B media plus 100 ng/mL human FGF-10 (PeproTech, cat. 100-26), 500 nM SB-431542 (Selleckchem, cat. S1067), and 10 nM gastrin (Tocris Bioscience, cat. 3006). […]

[1] = second compound 0.0316 µM, first compound 0.0316 µM
[2] = second compound 0.0316 µM, first compound 0.1 µM
[3] = second compound 0.0316 µM, first compound 0.316 µM
[4] = second compound 0.0316 µM, first compound 1 µM
[5] = second compound 0.0316 µM, first compound 3.16 µM
[6] = second compound 0.0316 µM, first compound 10 µM
[7] = second compound 0.1 µM, first compound 0.0316 µM
[8] = second compound 0.1 µM, first compound 0.1 µM
[9] = second compound 0.1 µM, first compound 0.316 µM
[10] = second compound 0.1 µM, first compound 1 µM
[11] = second compound 0.1 µM, first compound 3.16 µM
[12] = second compound 0.1 µM, first compound 10 µM
[13] = second compound 0.316 µM, first compound 0.0316 µM
[14] = second compound 0.316 µM, first compound 0.1 µM
[15] = second compound 0.316 µM, first compound 0.316 µM
[16] = second compound 0.316 µM, first compound 1 µM
[17] = second compound 0.316 µM, first compound 3.16 µM
[18] = second compound 0.316 µM, first compound 10 µM
[19] = second compound 1 µM, first compound 0.0316 µM
[20] = second compound 1 µM, first compound 0.1 µM
[21] = second compound 1 µM, first compound 0.316 µM
[22] = second compound 1 µM, first compound 1 µM
[23] = second compound 1 µM, first compound 3.16 µM
[24] = second compound 1 µM, first compound 10 µM
[25] = second compound 3.16 µM, first compound 0.0316 µM
[26] = second compound 3.16 µM, first compound 0.1 µM
[27] = second compound 3.16 µM, first compound 0.316 µM
[28] = second compound 3.16 µM, first compound 1 µM
[29] = second compound 3.16 µM, first compound 3.16 µM
[30] = second compound 3.16 µM, first compound 10 µM
[31] = second compound 10 µM, first compound 0.0316 µM
[32] = second compound 10 µM, first compound 0.1 µM
[33] = second compound 10 µM, first compound 0.316 µM
[34] = second compound 10 µM, first compound 1 µM
[35] = second compound 10 µM, first compound 3.16 µM
[36] = second compound 10 µM, first compound 10 µM
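Also: compound exposure lasted seven days before the viability read.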
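For viability, T/C in this document: spheroids also contain HUVEC endothelial cells and mesenchymal stem cells as stroma.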

CC1(O)CCCC1n1c(=O)c(C(F)F)cc2cnc(NC3CCN(S(C)(=O)=O)CC3)nc21 (stereo unspecified) + C#Cc1c(F)ccc2cc(O)cc(-c3ncc4c(N5CC6CCC(C5)N6)nc(OCC56CCCN5CC(F)C6)nc4c3F)c12
inactive: viability, T/C [1] 53.9% | viability, T/C [2] 48% | viability, T/C [3] 60.1% | viability, T/C [4] 68.4% | viability, T/C [5] 75.1% | viability, T/C [6] 24.9% | viability, T/C [7] 48.8% | viability, T/C [8] 56.6% | viability, T/C [9] 43.4% | viability, T/C [10] 53.9% | viability, T/C [11] 73% | viability, T/C [12] 21.3% | viability, T/C [13] 44.5% | viability, T/C [14] 37.4% | viability, T/C [15] 41.1% | viability, T/C [16] 51.3% | viability, T/C [17] 63.1% | viability, T/C [18] 19.5% | viability, T/C [19] 52.3% | viability, T/C [20] 41.4% | viability, T/C [21] 39.8% | viability, T/C [22] 47.8% | viability, T/C [23] 59.5% | viability, T/C [24] 21.6% | viability, T/C [25] 45.9% | viability, T/C [26] 31.5% | viability, T/C [27] 38.8% | viability, T/C [28] 40.6% | viability, T/C [29] 56.6% | viability, T/C [30] 24.4% | viability, T/C [31] 42.4% | viability, T/C [32] 30.6% | viability, T/C [33] 40.4% | viability, T/C [34] 46.2% | viability, T/C [35] 62.8% | viability, T/C [36] 12.3%
> 10000 nM: IC50 (second compound 0.0316 µM)
31.6 nM: IC50 (second compound 1 µM)
< 31.6 nM: IC50 (second compound 0.316 µM) | IC50 (second compound 3.16 µM) | IC50 (second compound 10 µM)
3760 nM: IC50 (second compound 0.1 µM)

CCC(CC)c1cc(NC2CCC(N)C2)n2nccc2n1 (stereo unspecified) + C#Cc1c(F)ccc2cc(O)cc(-c3ncc4c(N5CC6CCC(C5)N6)nc(OCC56CCCN5CC(F)C6)nc4c3F)c12
active: viability, T/C [5] 5.12% | viability, T/C [6] 10.6% | viability, T/C [23] 7.46% | viability, T/C [24] 10.2% | viability, T/C [29] 4.58% | viability, T/C [30] 13.5% | viability, T/C [35] 4.49% | viability, T/C [36] 9.43%
935 nM: IC50 (second compound 3.16 µM)
1370 nM: IC50 (second compound 0.0316 µM)
31.6 nM: IC50 (second compound 10 µM)
1080 nM: IC50 (second compound 0.316 µM)
inactive: viability, T/C [1] 62.2% | viability, T/C [2] 56% | viability, T/C [3] 68.2% | viability, T/C [4] 77.6% | viability, T/C [7] 51.8% | viability, T/C [8] 59.7% | viability, T/C [9] 65.7% | viability, T/C [10] 55.8% | viability, T/C [11] 8.07% | viability, T/C [12] 12.2% | viability, T/C [13] 56.4% | viability, T/C [14] 72.5% | viability, T/C [15] 56.3% | viability, T/C [16] 53% | viability, T/C [17] 7.76% | viability, T/C [18] 12.5% | viability, T/C [19] 47.6% | viability, T/C [20] 54.1% | viability, T/C [21] 64% | viability, T/C [22] 48.1% | viability, T/C [25] 53.8% | viability, T/C [26] 61.7% | viability, T/C [27] 52.2% | viability, T/C [28] 49.7% | viability, T/C [31] 46% | viability, T/C [32] 51.2% | viability, T/C [33] 45% | viability, T/C [34] 33%
737 nM: IC50 (second compound 1 µM)
1160 nM: IC50 (second compound 0.1 µM)

CCN1CCN(Cc2ccc(Nc3ncc(F)c(-c4cc(F)c5nc(C)n(C(C)C)c5c4)n3)nc2)CC1 + C#Cc1c(F)ccc2cc(O)cc(-c3ncc4c(N5CC6CCC(C5)N6)nc(OCC56CCCN5CC(F)C6)nc4c3F)c12
inactive: viability, T/C (second compound 0.0316 µM, first compound 0.00316 µM) 66.7% | viability, T/C (second compound 0.0316 µM, first compound 0.01 µM) 69.4% | viability, T/C [1] 57.5% | viability, T/C [2] 73.8% | viability, T/C [3] 71.5% | viability, T/C [4] 72.8% | viability, T/C (second compound 0.1 µM, first compound 0.00316 µM) 46% | viability, T/C (second compound 0.1 µM, first compound 0.01 µM) 65.2% | viability, T/C [7] 59.2% | viability, T/C [8] 61.2% | viability, T/C [9] 65.9% | viability, T/C [10] 66.6% | viability, T/C (second compound 0.316 µM, first compound 0.00316 µM) 61.2% | viability, T/C (second compound 0.316 µM, first compound 0.01 µM) 53.5% | viability, T/C [13] 46.9% | viability, T/C [14] 52.9% | viability, T/C [15] 51.1% | viability, T/C [16] 67.9% | viability, T/C (second compound 1 µM, first compound 0.00316 µM) 58.5% | viability, T/C (second compound 1 µM, first compound 0.01 µM) 56.4% | viability, T/C [19] 58% | viability, T/C [20] 45.5% | viability, T/C [21] 49.5% | viability, T/C [22] 56.1% | viability, T/C (second compound 3.16 µM, first compound 0.00316 µM) 50.2% | viability, T/C (second compound 3.16 µM, first compound 0.01 µM) 44.8% | viability, T/C [25] 47.8% | viability, T/C [26] 42.6% | viability, T/C [27] 59.9% | viability, T/C [28] 51% | viability, T/C (second compound 10 µM, first compound 0.00316 µM) 39.7% | viability, T/C (second compound 10 µM, first compound 0.01 µM) 37.2% | viability, T/C [31] 30.9% | viability, T/C [32] 31.4% | viability, T/C [33] 36% | viability, T/C [34] 24.7%
> 1000 nM: IC50 (second compound 0.0316 µM) | IC50 (second compound 0.1 µM) | IC50 (second compound 0.316 µM)
316 nM: IC50 (second compound 1 µM)
< 3.16 nM: IC50 (second compound 3.16 µM) | IC50 (second compound 10 µM)
